According to patent US7081460B2, “Quinazoline and quinazoline-like compounds for the treatment of integrin-mediated disorders” (Ortho-McNeil Pharmaceutical, Inc., priority 2001, dated 2006):

Assays:
[1] = molecular target: T1, Human αvβ3 (Homo sapiens, UniProt P05106+P06756); assay: In vitro solid phase purified αvβ3 binding assay (vitronectin/αvβ3); settings: isolated human αvβ3, 5 nM vitronectin; read-out: αvβ3 Binding IC50
T1 construct: purchased Chemicon International Inc., Temecula, Calif
Method: (§1) In vitro Solid Phase Purified αvβ3 Binding Assay The vitronectin/αvβ3 binding assay methods were derived from Mehta et al. (Biochem J. 1998, 330, 861). Human αvβ3 (Chemicon International Inc., Temecula, Calif.), at a concentration of 1 μg/ml dissolved in Tris buffer (20 mM Tris, 1 mM CaCl2, 1 mM MgCl2, 10 μM MnCl2, 150 mM NaCl), was immobilized on Immulon 96 well plates (Dynex Technologies, Chantilly, Va.) overnight at 4° C. Plates were washed and treated with blocking buffer (3% BSA in Tris buffer) for 2 h at 37 C. Plates were then rinsed 2 times in Tris buffer containing 0.3% BSA and 0.2% Tween20 (polyoxyethylenesorbitan monolaurate). Five minutes prior to the addition of 5 nM vitronectin (Sigma, St. Louis, Mo.), compounds of the invention were added to wells in duplicate. Each plate included c-RGDfV as an internal control. Following a 3 hour incubation at 37° C., plates were washed 5 times in assay buffer. An anti-human vitronectin IgG rabbit polyclonal antibody (Calbiochem, San Diego, Calif.) was added (1:2000) and plates were incubated for 1 hour at room temperature. VectaStain ABC peroxidase kit reagents (Vector Laboratories, Burlingame, Calif.) employing a biotin labeled anti-rabbit IgG, were utilized for detection of bound antibody. Plates were read at 490 nm on a Molecular Devices (Sunnyvale, Calif.) microplate reader. […] The plate was covered and incubated overnight at 4° C. The GPIIb/IIIa solution was discarded and 150 μl of 5% BSA was added and incubated at RT for 1–3 h. The plate was washed extensively with modified Tyrodes buffer. Biotinylated fibrinogen (25 μl/well) at 2× final concentration was added to the wells that contain the test compounds (25 μl/well). The plate was covered and incubated at RT for 2–4 h. Twenty minutes prior to incubation completion, one drop of Reagent A (VectaStain ABC Horse Radish Peroxidase kit, Vector Laboratories, Inc.) and one drop Reagent B were added with mixing to 5 mL modified Tyrodes buffer mix and let stand. The ligand solution was discarded and the plate washed (5×200 μl/well) with modified Tyrodes buffer. Vecta Stain HRP-Biotin-Avidin reagent (50 μl/well, as prepared above) was added and incubated at RT for 15 min. The Vecta Stain solution was discarded and the wells washed (5×200 μl/well) with modified Tyrodes buffer. Developing buffer (10 mL of 50 mM citrate/phosphate buffer @ pH 5.3, 6 mg o-phenylenediamine, 6 μl 30% H2O2; 50 μl/well) was added and incubated at rt for 3–5 min, and then 2 N H2SO4 (50 μl/well) was added. The absorbance was read at 490 nm.

[2] = molecular target: GPIIb/IIIa (Homo sapiens, UniProt P05106+P08514); assay: In vitro solid phase purified glycoprotein IIb/IIIa binding assay (biotinylated fibrinogen); settings: RGD-affinity purified GPIIb/IIIa, biotinylated fibrinogen; read-out: GPIIb/IIIa Binding IC50
GPIIb/IIIa, sequence (P08514 32-887 limits assumed): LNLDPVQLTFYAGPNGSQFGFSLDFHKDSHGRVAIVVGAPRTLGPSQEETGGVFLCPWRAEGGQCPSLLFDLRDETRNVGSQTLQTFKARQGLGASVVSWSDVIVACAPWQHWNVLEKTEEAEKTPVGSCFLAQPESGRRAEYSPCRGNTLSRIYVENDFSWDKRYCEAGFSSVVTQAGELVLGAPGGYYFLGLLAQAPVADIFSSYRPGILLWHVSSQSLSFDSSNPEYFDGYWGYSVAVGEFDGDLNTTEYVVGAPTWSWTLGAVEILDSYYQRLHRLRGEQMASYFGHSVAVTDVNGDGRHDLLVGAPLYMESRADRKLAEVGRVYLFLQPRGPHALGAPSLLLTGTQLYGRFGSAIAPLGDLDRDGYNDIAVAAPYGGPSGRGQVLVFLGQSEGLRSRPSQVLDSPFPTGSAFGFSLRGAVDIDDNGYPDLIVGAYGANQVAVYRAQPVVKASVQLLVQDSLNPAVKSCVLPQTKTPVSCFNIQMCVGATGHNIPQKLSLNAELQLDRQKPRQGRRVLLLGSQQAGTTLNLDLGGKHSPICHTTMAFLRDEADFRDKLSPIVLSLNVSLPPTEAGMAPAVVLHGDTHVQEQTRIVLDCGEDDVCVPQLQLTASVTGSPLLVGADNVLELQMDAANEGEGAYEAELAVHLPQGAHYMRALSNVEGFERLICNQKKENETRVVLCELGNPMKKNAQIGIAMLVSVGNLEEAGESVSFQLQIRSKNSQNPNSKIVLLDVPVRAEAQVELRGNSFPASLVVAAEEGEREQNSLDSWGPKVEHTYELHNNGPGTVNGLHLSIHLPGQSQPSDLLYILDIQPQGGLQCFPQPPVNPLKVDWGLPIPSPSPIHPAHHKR
GPIIb/IIIa, sequence (P08514 891-1039 partner limits assumed): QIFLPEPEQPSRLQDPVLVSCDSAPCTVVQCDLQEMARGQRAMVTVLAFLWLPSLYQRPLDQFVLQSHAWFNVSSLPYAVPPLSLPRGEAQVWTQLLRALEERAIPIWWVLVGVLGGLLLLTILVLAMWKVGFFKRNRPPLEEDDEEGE
GPIIb/IIIa, sequence (P05106 27-788): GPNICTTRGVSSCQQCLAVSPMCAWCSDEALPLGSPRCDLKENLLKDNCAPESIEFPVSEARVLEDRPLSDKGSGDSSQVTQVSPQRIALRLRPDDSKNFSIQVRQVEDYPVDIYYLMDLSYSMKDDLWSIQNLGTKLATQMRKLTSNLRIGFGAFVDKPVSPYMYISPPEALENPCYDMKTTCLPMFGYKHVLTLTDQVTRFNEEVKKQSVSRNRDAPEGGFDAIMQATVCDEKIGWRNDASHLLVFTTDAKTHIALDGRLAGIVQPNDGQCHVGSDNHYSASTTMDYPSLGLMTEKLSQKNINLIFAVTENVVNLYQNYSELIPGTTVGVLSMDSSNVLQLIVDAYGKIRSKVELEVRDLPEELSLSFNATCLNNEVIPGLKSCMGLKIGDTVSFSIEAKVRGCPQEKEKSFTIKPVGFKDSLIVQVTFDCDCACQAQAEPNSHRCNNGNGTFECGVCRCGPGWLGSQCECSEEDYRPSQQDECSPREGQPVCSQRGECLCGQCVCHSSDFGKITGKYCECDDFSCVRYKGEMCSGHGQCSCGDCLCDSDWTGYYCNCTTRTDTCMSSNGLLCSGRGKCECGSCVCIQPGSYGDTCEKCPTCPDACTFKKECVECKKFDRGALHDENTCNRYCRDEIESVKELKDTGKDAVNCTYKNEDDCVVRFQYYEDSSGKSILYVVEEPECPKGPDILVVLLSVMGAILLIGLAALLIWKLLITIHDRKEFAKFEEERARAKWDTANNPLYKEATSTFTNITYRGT
Method: as §1

T1 sequence (P06756 31-889 limits assumed): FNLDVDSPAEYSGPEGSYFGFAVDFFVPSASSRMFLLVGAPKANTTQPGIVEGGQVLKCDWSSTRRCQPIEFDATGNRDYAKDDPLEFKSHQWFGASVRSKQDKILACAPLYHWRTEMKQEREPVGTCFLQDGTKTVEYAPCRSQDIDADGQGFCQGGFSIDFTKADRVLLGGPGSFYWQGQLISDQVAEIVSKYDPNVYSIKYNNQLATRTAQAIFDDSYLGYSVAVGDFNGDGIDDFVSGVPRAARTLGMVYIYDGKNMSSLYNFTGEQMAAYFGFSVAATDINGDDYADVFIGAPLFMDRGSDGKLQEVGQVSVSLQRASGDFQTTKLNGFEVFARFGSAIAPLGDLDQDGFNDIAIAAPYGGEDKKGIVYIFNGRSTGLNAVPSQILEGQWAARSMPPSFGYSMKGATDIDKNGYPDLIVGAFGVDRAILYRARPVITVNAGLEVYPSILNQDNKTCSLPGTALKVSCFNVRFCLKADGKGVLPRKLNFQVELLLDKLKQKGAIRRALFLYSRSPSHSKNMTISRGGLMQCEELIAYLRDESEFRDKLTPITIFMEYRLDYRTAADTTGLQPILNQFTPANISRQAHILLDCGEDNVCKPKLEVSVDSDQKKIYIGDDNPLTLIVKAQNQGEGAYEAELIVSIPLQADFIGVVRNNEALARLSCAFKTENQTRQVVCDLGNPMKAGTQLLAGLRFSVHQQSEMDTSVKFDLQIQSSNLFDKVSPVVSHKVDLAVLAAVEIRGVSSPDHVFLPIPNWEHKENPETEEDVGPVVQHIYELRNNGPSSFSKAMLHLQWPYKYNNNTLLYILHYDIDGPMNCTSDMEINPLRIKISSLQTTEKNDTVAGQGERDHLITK
T1 sequence (P06756 891-1048 partner limits assumed): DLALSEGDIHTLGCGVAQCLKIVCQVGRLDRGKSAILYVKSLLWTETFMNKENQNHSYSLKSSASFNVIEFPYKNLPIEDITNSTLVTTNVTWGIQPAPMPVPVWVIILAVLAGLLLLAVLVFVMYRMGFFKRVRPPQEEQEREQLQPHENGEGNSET
T1 sequence (P05106 27-788): as the sequence (P05106 27-788) above

SMILES | IC50 [1] [nM] | IC50 [2] [nM]
O=C(O)[C@H](Cc1nc2ccc(/C=C/CNC3=NCCN3)cc2c(=O)[nH]1)NS(=O)(=O)CCc1cccc2ccccc12 [Compound 5, 6-[(1E)-3-[(4,5-dihydro-1H-imidazol-2-yl)amino]-1-propenyl]-(αS)-3,4-dihydro-α-[[[2-(1-naphthalenyl)ethyl]sulfonyl]amino]-4-oxo-2-quinazolinepropanoic Acid] | 8.6 | 670
O=C(O)[C@H](Cc1nc2ccc(/C=C/CNC3=NCCN3)cc2c(=O)[nH]1)NS(=O)(=O)c1c(Cl)cc(Cl)cc1Cl [Compound 21, 6-[(1E)-3-[(4,5-dihydro-1H-imidazol-2-yl)amino]-1-propenyl]-(αS)-3,4-dihydro-4-oxo-α-[[(2,4,6-trichlorophenyl)sulfonyl]amino]-2-quinazolinepropanoic acid] | > 50 | 1600
Cc1coc(NC/C=C/c2ccc3nc(C[C@H](NS(=O)(=O)c4c(C)c(C)c(C)c(C)c4C)C(=O)O)[nH]c(=O)c3c2)n1 [Compound 81, (αS)-3,4-dihydro-6-[(1E)-3-[(4-methyl-2-oxazolyl)amino]-1-propenyl]-4-oxo-α-[[(2,3,4,5,6-pentamethylphenyl)sulfonyl]amino]-2-quinazolinepropanoic acid] | > 5000 | 7100
Cc1nn(C)c(Cl)c1S(=O)(=O)N[C@@H](Cc1nc2ccc(/C=C/CNc3ccccn3)cc2c(=O)[nH]1)C(=O)O [Compound 36, α-[[(5-chloro-1,3-dimethyl-1H-pyrazol-4-yl)sulfonyl]amino]-(αS)-3,4-dihydro-4-oxo-6-[(1E)-3-(2-pyridinylamino)-1-propenyl]-2-quinazolinepropanoic acid] | 25 | 2700
COc1ccc(S(=O)(=O)N[C@@H](Cc2nc3ccc(/C=C/CNC4=NCCCC4)cc3c(=O)[nH]2)C(=O)O)cc1OC [Compound 60, α-[[(3,4-dimethoxyphenyl)sulfonyl]amino]-(αS)-3,4-dihydro-4-oxo-6-[(1E)-3-[(3,4,5,6-tetrahydro-2-pyridinyl)amino]-1-propenyl]-2-quinazolinepropanoic acid] | 58 | 620
COc1ccc(OC)c(S(=O)(=O)N[C@@H](Cc2nc3ccc(/C=C/CNc4ccccn4)cc3c(=O)[nH]2)C(=O)O)c1 [Compound 32, α-[[(2,5-dimethoxyphenyl)sulfonyl]amino]-(αS)-3,4-dihydro-4-oxo-6-[(1E)-3-(2-pyridinylamino)-1-propenyl]-2-quinazolinepropanoic acid] | 21 | 3900
O=C(N[C@@H](Cc1nc2ccc(C#CCNC3=NCCN3)cc2c(=O)[nH]1)C(=O)O)OCc1ccccc1 [Compound 20, 6-[3-[(4,5-dihydro-1H-imidazol-2-yl)amino]-1-propynyl]-(αS)-3,4-dihydro-4-oxo-α-[[(phenylmethoxy)carbonyl]amino]-2-quinazolinepropanoic acid] | > 5000 | 660
O=C(N[C@@H](Cc1nc2ccc(/C=C/CCNC3=NCCN3)cc2c(=O)[nH]1)C(=O)O)OCc1ccccc1 [Compound 8, 6-[(1E)-4-[(4,5-dihydro-1H-imidazol-2-yl)amino]-1-butenyl]-(αS)-3,4-dihydro-4-oxo-α-[[(phenylmethoxy)carbonyl]amino]-2-quinazolinepropanoic Acid] | 210 | 580
COc1ccc(S(=O)(=O)N[C@@H](Cc2nc3ccc(/C=C/CNc4ccccn4)cc3c(=O)[nH]2)C(=O)O)cc1 [Compound 26, (αS)-3,4-dihydro-α-[[(4-methoxyphenyl)sulfonyl]amino]-4-oxo-6-[(1E)-3-(2-pyridinylamino)-1-propenyl]-2-quinazolinepropanoic acid] | 15 | 1300
COc1ccc(S(=O)(=O)N[C@@H](Cc2nc3ccc(/C=C/CNc4ccc(C)cn4)cc3c(=O)[nH]2)C(=O)O)cc1OC [Compound 44, α-[[(3,4-dimethoxyphenyl)sulfonyl]amino]-(αS)-3,4-dihydro-6-[(1E)-3-[(5-methyl-2-pyridinyl)amino]-1-propenyl]-4-oxo-2-quinazolinepropanoic acid] | 24 | 790
CCCCS(=O)(=O)N[C@@H](Cc1nc2ccc(/C=C/CNC(=O)NCc3ccccc3)cc2c(=O)[nH]1)C(=O)O [Compound 73, α-[(butylsulfonyl)amino]-(αS)-3,4-dihydro-4-oxo-6-[(1E)-3-[[[(phenylmethyl)amino]carbonyl]amino]-1-propenyl]-2-quinazolinepropanoic acid] | 2000 | > 50000
C=C(CNC(=O)NC(C)C)c1ccc2nc(C[C@H](NS(=O)(=O)c3c(C)c(C)c(C)c(C)c3C)C(=O)O)[nH]c(=O)c2c1 [Compound 64, (αS)-3,4-dihydro-6-[1-[[[[(1-methylethyl)amino]carbonyl]amino]methyl]ethenyl]-4-oxo-α-[[(2,3,4,5,6-pentamethylphenyl)sulfonyl]amino]-2-quinazolinepropanoic acid] | 150 | 1100
O=C(O)[C@H](Cc1nc2ccc(/C=C/CNc3ccccn3)cc2c(=O)[nH]1)NS(=O)(=O)c1ccc(OC(F)(F)F)cc1 [Compound 35, (αS)-3,4-dihydro-4-oxo-6-[(1E)-3-(2-pyridinylamino)-1-propenyl]-α-[[[4-(trifluoromethoxy)phenyl]sulfonyl]amino]-2-quinazolinepropanoic acid] | 59 | 4800
O=C(N[C@@H](Cc1nc2ccc(-c3cccc(NC4=NCCN4)c3)cc2c(=O)[nH]1)C(=O)O)OCc1ccccc1 [Compound 9, 6-[3-[(4,5-dihydro-1H-imidazol-2-yl)amino]phenyl]-(αS)-3,4-dihydro-4-oxo-α-[[(phenylmethoxy)carbonyl]amino]-2-quinazolinepropanoic Acid] | > 5000 | 88
O=C(N[C@@H](Cc1nc2ccc(/C=C/CNC3=NCCN3)cc2c(=O)[nH]1)C(=O)O)OCc1ccccc1 [Compound 2, 6-[(1E)-3-[(4,5-dihydro-1H-imidazol-2-yl)amino]-1-propenyl]-(αS)-3,4-dihydro-4-oxo-α-[[(phenylmethoxy)carbonyl]amino]-2-quinazolinepropanoic Acid] | 55 | 560
COc1ccc(S(=O)(=O)N[C@@H](Cc2nc3ccc(/C=C/CNC(=O)NCc4ccccc4)cc3c(=O)[nH]2)C(=O)O)cc1OC [Compound 54, α-[[(3,4-dimethoxyphenyl)sulfonyl]amino]-(αS)-3,4-dihydro-4-oxo-6-[(1E)-3-[[[(phenylmethyl)amino]carbonyl]amino]-1-propenyl]-2-quinazolinepropanoic acid] | 38 | 5000
Cc1c(C)c(C)c(S(=O)(=O)N[C@@H](Cc2nc3ccc(/C=C/CCNC4=NCCN4)cc3c(=O)[nH]2)C(=O)O)c(C)c1C [Compound 42, 6-[(1E)-4-[(4,5-dihydro-1H-imidazol-2-yl)amino]-1-butenyl]-(αS)-3,4-dihydro-4-oxo-α-[[(2,3,4,5,6-pentamethylphenyl)sulfonyl]amino]-2-quinazolinepropanoic acid] | 5.4 | 60
CNC(=O)NC/C=C/c1ccc2nc(C[C@H](NS(=O)(=O)c3c(C)c(C)c(C)c(C)c3C)C(=O)O)[nH]c(=O)c2c1 [Compound 59, (αS)-3,4-dihydro-6-[(1E)-3-[[(methylamino)carbonyl]amino]-1-propenyl]-4-oxo-α-[[(2,3,4,5,6-pentamethylphenyl)sulfonyl]amino]-2-quinazolinepropanoic acid] | 59 | 3900
O=C(N[C@@H](Cc1nc2ccc(/C=C/CNC3=NCCC3)cc2c(=O)[nH]1)C(=O)O)OCc1ccccc1 [Compound 67, 6-[(1E)-3-[(3,4-dihydro-2H-pyrrol-5-yl)amino]-1-propenyl]-(αS)-3,4-dihydro-4-oxo-α-[[(phenylmethoxy)carbonyl]amino]-2-quinazolinepropanoic acid] | 420 | 580
Cc1c(C)c(C)c(S(=O)(=O)N[C@@H](Cc2nc3ccc(/C=C/CNC(=O)NCc4ccccc4)cc3c(=O)[nH]2)C(=O)O)c(C)c1C [Compound 49, (αS)-3,4-dihydro-4-oxo-α-[[(2,3,4,5,6-pentamethylphenyl)sulfonyl]amino]-6-[(1E)-3-[[(benzylamino)carbonyl]amino]-1-propenyl]-2-quinazolinepropanoic acid] | 8.8 | 820
